In patent US20250345314A1 (PUSAN NATIONAL UNIVERSITY INDUSTRY-UNIVERSITY COOPERATION …, priority 2024, published 2025):

How the values were obtained:
Assay type in all cases: cell-based
[1] = tested on: mesenchymal stem cells UCB #001, UCB #006, and UCB #192; assay: PGE2 secretion of mesenchymal stem cells by ELISA; conditions: pirfenidone treatment
Protocol: (§1) In addition, changes in HGF and PGE2 secretion in mesenchymal stem cells treated with rapamycin at various concentrations were analyzed by ELISA. The results of analyzing HGF and PGE2 secretion were shown in FIGS. 2B and 2C, respectively.
(§2) The effects of pirfenidone, a drug used clinically as an anti-fibrotic drug, on the survival rate of mesenchymal stem cells and the secretion of HGF and PGE2 were confirmed in the same manner as rapamycin. The results of confirming the survival rate of mesenchymal stem cells according to pirfenidone treatment were shown in FIG. 3A, and the results of analyzing HGF and PGE2 secretion were shown in FIGS. 3B and 3C, respectively.

[2] = tested on: mesenchymal stem cells UCB #001, UCB #006, and UCB #192; assay: HGF secretion of mesenchymal stem cells by ELISA
Protocol: as §1, §2

[3] = tested on: mesenchymal stem cells UCB #001, UCB #006, and UCB #192; assay: Cell viability of mesenchymal stem cells by CCK-8 assay
Protocol: The effects of rapamycin on the survival rate of mesenchymal stem cells and the secretion of HGF and PGE2 were confirmed. Specifically, the mesenchymal stem cells UCB #001, UCB #006, and UCB #192 were treated with rapamycin at various concentrations of 1.25, 2.5, 5, 10, 20, 40, and 80 ng/ml for 24 hours.
as §2

Structure (SMILES): Cc1ccc(=O)n(-c2ccccc2)c1 [pirfenidone]
- PGE2 secretion [1]: no significant change
- HGF secretion ([2]; pirfenidone 20 μg/ml): reduced
- HGF secretion ([2]; pirfenidone 4 to 10 μg/ml): did not affect
- cell viability ([3]; UCB #001, pirfenidone 1 to 6 μg/ml, CCK-8): increased
- concentration at which cytotoxicity was exhibited ([3]; UCB #006 and UCB #192, CCK-8): ≥ 20 µg/mL
- cell viability ([3]; UCB #006 and UCB #192, pirfenidone 1 to 10 μg/ml, CCK-8): increased

Structure (SMILES): CO[C@H]1C[C@@H]2CC[C@@H](C)[C@@](O)(O2)C(=O)C(=O)N2CCCC[C@H]2C(=O)O[C@H]([C@H](C)C[C@@H]2CC[C@@H](O)[C@H](OC)C2)CC(=O)[C@H](C)/C=C(\C)[C@@H](O)[C@@H](OC)C(=O)[C@H](C)C[C@H](C)/C=C/C=C/C=C/1C [rapamycin]
- concentration at which cytotoxicity was exhibited ([3]; mesenchymal stem cells, 24 hours, CCK-8): ≥ 0.08 µg/mL
